# From patent US20250382305A1 (PTC THERAPEUTICS, INC., priority 2022, published 2025)
# What was measured:
# [1] = system: Total ATXN3 (tATXN3) protein; assay: Endogenous Total ATXN3 (tATXN3) Protein Assay (MSD immunoassay of cell lysates); format: cell-based; conditions: average IC50, total ATXN3 protein in cell lysate after 48 h with compound (Table 1)
# Outline: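 By electrochemiluminescent MSD sandwich immunoassay (mouse monoclonal capture, rabbit monoclonal and SULFO-TAG anti-rabbit detection), endogenous ATXN3 was quantified in lysates of cells treated 48 h at 37° C at 10,000 cells/well. Treatment used a 7-point 3.16-fold duplicate dilution series, with average IC50 grouped into star categories.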
# ATXN3 pre-mRNA = assay: RT-qPCR Assay to Quantify Exon 4 Skipping in ATXN3 pre-mRNA in Cells; format: cell-based; conditions: percent exon 4 skipping in ATXN3 pre-mRNA, RT-qPCR of cell lysates; average IC50
# Outline: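 IC50 derives from a dose-response fit of percent exon 4 skipping, quantified by RT-qPCR on crude lysates. Compounds tested as 7-point 3.16-fold dilutions in duplicate; cells (10,000/well) were exposed for 24 h at 37 °C before lysis.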
SMILES,IC50 [1] [nM],IC50 (ATXN3 pre-mRNA) [nM]
"N[C@@H]1CCCCC1c1sc2c(NCc3cccs3)cc(Cl)nc2c1C(F)F.N[C@H]1CCCCC1c1sc2c(NCc3cccs3)cc(Cl)nc2c1C(F)F (mixture of isomers) [Compound 279, 2-((2R)-2-aminocyclohexyl)-5-chloro-3-(difluoromethyl)-N-(thiophen-2-ylmethyl)thieno[3,2-b]pyridin-7-amine and 2-((2S)-2-aminocyclohexyl)-5-chloro-3-(difluoromethyl)-N-(thiophen-2-ylmethyl)thieno[3,2-b]pyridin-7-amine]",30 to 300,30 to 300
"N[C@@H]1C[C@@H]2C[C@@H]2C[C@H]1c1sc2c(NCc3cccs3)cc(Cl)nc2c1Br.N[C@H]1C[C@H]2C[C@H]2C[C@@H]1c1sc2c(NCc3cccs3)cc(Cl)nc2c1Br (mixture of isomers) [Compound 290, 2-((1R,3R,4R,6S)-4-aminobicyclo[4.1.0]heptan-3-yl)-3-bromo-5-chloro-N-(thiophen-2-ylmethyl)thieno[3,2-b]pyridin-7-amine and 2-((1S,3S,4S,6R)-4-aminobicyclo[4.1.0]heptan-3-yl)-3-bromo-5-chloro-N-(thiophen-2-ylmethyl)thieno[3,2-b]pyridin-7-amine]",30 to 300,30 to 300
"C[C@@H]1C=CC[C@H](c2sc3c(NCc4cccs4)cc(Cl)nc3c2Br)[C@H]1N.C[C@H]1C=CC[C@@H](c2sc3c(NCc4cccs4)cc(Cl)nc3c2Br)[C@@H]1N (mixture of isomers) [Compound 294, 2-((1R,5S,6R)-6-amino-5-methylcyclohex-3-en-1-yl)-3-bromo-5-chloro-N-(thiophen-2-ylmethyl)thieno[3,2-b]pyridin-7-amine and 2-((1S,5R,6S)-6-amino-5-methylcyclohex-3-en-1-yl)-3-bromo-5-chloro-N-(thiophen-2-ylmethyl)thieno[3,2-b]pyridin-7-amine]",30 to 300,30 to 300
"C/C=C/CNc1cc(Cl)nc2c(Br)c([C@@H]3CC=CC[C@H]3N)sc12.C/C=C/CNc1cc(Cl)nc2c(Br)c([C@H]3CC=CC[C@@H]3N)sc12 (mixture of isomers) [Compound 300, 2-((1R,6R)-6-aminocyclohex-3-en-1-yl)-3-bromo-N-((E)-but-2-en-1-yl)-5-chlorothieno[3,2-b]pyridin-7-amine and 2-((1S,6S)-6-aminocyclohex-3-en-1-yl)-3-bromo-N-((E)-but-2-en-1-yl)-5-chlorothieno[3,2-b]pyridin-7-amine]",30 to 300,30 to 300
"N[C@@H]1COCC[C@H]1c1sc2c(NCc3ccccc3)cc(Cl)nc2c1Br.N[C@H]1COCC[C@@H]1c1sc2c(NCc3ccccc3)cc(Cl)nc2c1Br (mixture of isomers) [Compound 328, 2-((3R,4S)-3-aminotetrahydro-2H-pyran-4-yl)-N-benzyl-3-bromo-5-chlorothieno[3,2-b]pyridin-7-amine and 2-((3S,4R)-3-aminotetrahydro-2H-pyran-4-yl)-N-benzyl-3-bromo-5-chlorothieno[3,2-b]pyridin-7-amine]",30 to 300,30 to 300
"C#Cc1c([C@@H]2CCOC[C@H]2N)sc2c(NCc3ccco3)nc(Cl)nc12.C#Cc1c([C@H]2CCOC[C@@H]2N)sc2c(NCc3ccco3)nc(Cl)nc12 (mixture of isomers) [Compound 330, 6-((3R,4S)-3-aminotetrahydro-2H-pyran-4-yl)-2-chloro-7-ethynyl-N-(furan-2-ylmethyl)thieno[3,2-d]pyrimidin-4-amine and 6-((3S,4R)-3-aminotetrahydro-2H-pyran-4-yl)-2-chloro-7-ethynyl-N-(furan-2-ylmethyl)thieno[3,2-d]pyrimidin-4-amine]",30 to 300,30 to 300
"Cc1c([C@@H]2CCC[C@H](F)[C@H]2N)sc2c(NCc3cccs3)cc(Cl)nc12.Cc1c([C@H]2CCC[C@@H](F)[C@@H]2N)sc2c(NCc3cccs3)cc(Cl)nc12 (mixture of isomers) [Compound 342, 2-((1R,2S,3S)-2-amino-3-fluorocyclohexyl)-5-chloro-3-methyl-N-(thiophen-2-ylmethyl)thieno[3,2-b]pyridin-7-amine and 2-((1S,2R,3R)-2-amino-3-fluorocyclohexyl)-5-chloro-3-methyl-N-(thiophen-2-ylmethyl)thieno[3,2-b]pyridin-7-amine]",30 to 300,30 to 300
"N[C@@H]1CCCO[C@H]1c1c(Cl)c2nc(Cl)nc(NCc3cccs3)c2n1C(F)F.N[C@H]1CCCO[C@@H]1c1c(Cl)c2nc(Cl)nc(NCc3cccs3)c2n1C(F)F (mixture of isomers) [Compound 346, 6-((2S,3S)-3-aminotetrahydro-2H-pyran-2-yl)-2,7-dichloro-5-(difluoromethyl)-N-(thiophen-2-ylmethyl)-5H-pyrrolo[3,2-d]pyrimidin-4-amine and 6-((2R,3R)-3-aminotetrahydro-2H-pyran-2-yl)-2,7-dichloro-5-(difluoromethyl)-N-(thiophen-2-ylmethyl)-5H-pyrrolo[3,2-d]pyrimidin-4-amine]",30 to 300,30 to 300
"N[C@@H]1CCCC[C@H]1c1sc2c(NCc3cccs3)cc(Cl)nc2c1C(F)(F)F.N[C@H]1CCCC[C@@H]1c1sc2c(NCc3cccs3)cc(Cl)nc2c1C(F)(F)F (mixture of isomers) [Compound 356, 2-((1S,2S)-2-aminocyclohexyl)-5-chloro-N-(thiophen-2-ylmethyl)-3-(trifluoromethyl)thieno[3,2-b]pyridin-7-amine and 2-((1R,2R)-2-aminocyclohexyl)-5-chloro-N-(thiophen-2-ylmethyl)-3-(trifluoromethyl)thieno[3,2-b]pyridin-7-amine]",30 to 300,30 to 300
"Cc1c([C@@H]2CC=CC[C@H]2N)n(C(F)F)c2c(NCc3ccco3)nc(Cl)nc12.Cc1c([C@H]2CC=CC[C@@H]2N)n(C(F)F)c2c(NCc3ccco3)nc(Cl)nc12 (mixture of isomers) [Compound 358, 6-((1R,6R)-6-aminocyclohex-3-en-1-yl)-2-chloro-5-(difluoromethyl)-N-(furan-2-ylmethyl)-7-methyl-5H-pyrrolo[3,2-d]pyrimidin-4-amine and 6-((1S,6S)-6-aminocyclohex-3-en-1-yl)-2-chloro-5-(difluoromethyl)-N-(furan-2-ylmethyl)-7-methyl-5H-pyrrolo[3,2-d]pyrimidin-4-amine]",30 to 300,30 to 300
"N[C@@H]1CCCC(F)(F)[C@@H]1c1sc2c(NCc3cccs3)cc(Cl)nc2c1Br.N[C@H]1CCCC(F)(F)[C@H]1c1sc2c(NCc3cccs3)cc(Cl)nc2c1Br (mixture of isomers) [Compound 359, 2-((1R,6R)-6-amino-2,2-difluorocyclohexyl)-3-bromo-5-chloro-N-(thiophen-2-ylmethyl)thieno[3,2-b]pyridin-7-amine and 2-((1S,6S)-6-amino-2,2-difluorocyclohexyl)-3-bromo-5-chloro-N-(thiophen-2-ylmethyl)thieno[3,2-b]pyridin-7-amine]",30 to 300,30 to 300
"N[C@@H]1CC=CC[C@H]1c1sc2c(NCc3cccs3)cc(Cl)nc2c1I.N[C@H]1CC=CC[C@@H]1c1sc2c(NCc3cccs3)cc(Cl)nc2c1I (mixture of isomers) [Compound 365, 2-((1R,6R)-6-aminocyclohex-3-en-1-yl)-5-chloro-3-iodo-N-(thiophen-2-ylmethyl)thieno[3,2-b]pyridin-7-amine and 2-((1S,6S)-6-aminocyclohex-3-en-1-yl)-5-chloro-3-iodo-N-(thiophen-2-ylmethyl)thieno[3,2-b]pyridin-7-amine]",30 to 300,30 to 300
